Source: ChEMBL document CHEMBL1201862, “PubChem BioAssay data set” (2004)
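In this assay, cells in 96-well plates receive the compound at five concentrations for 48 hours. Endpoints are linearly interpolated between the surrounding concentrations. GI50 = concentration required for 50% inhibition of growth.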 The source made the active and inactive calls. No stated cut-off is given here; in the data, active = GI50 up to about 1.1 µM and inactive = higher.

Legend:
Experiment in all cases: NCI-60 cell line screen, 48 h
[1] = test system: MOLT-4
[2] = test system: K562
[3] = test system: PC-3
[4] = test system: IGROV-1
[5] = test system: TK-10
[6] = test system: MCF7
[7] = test system: HOP-62
[8] = test system: SW-620
[9] = test system: NCI/ADR-RES
[10] = test system: NCI-H460
[11] = test system: KM12
[12] = test system: UO-31
[13] = test system: HCC 2998
[14] = test system: COLO 205
[15] = test system: HT-29
[16] = test system: UACC-62
[17] = test system: HCT-116
[18] = test system: CCRF-CEM
[19] = test system: SK-OV-3
[20] = test system: MDA-MB-231
[21] = test system: OVCAR-8
[22] = test system: RXF 393
[23] = test system: HOP-92
[24] = test system: OVCAR-4
[25] = test system: OVCAR-3
[26] = test system: SK-MEL-5
[27] = test system: U-251
[28] = test system: UACC-257
[29] = test system: ACHN
[30] = test system: HL-60
[31] = test system: SR
[32] = test system: EKVX
[33] = test system: Malme-3M
[34] = test system: BT-549
[35] = test system: NCI-H226
[36] = test system: Hs-578T
[37] = test system: SF-539
[38] = test system: OVCAR-5
[39] = test system: SF-268
[40] = test system: SK-MEL-28
[41] = test system: M14
[42] = test system: MDA-MB-435
[43] = test system: SK-MEL-2
[44] = test system: SF-295
[45] = test system: 786-0
[46] = test system: CAKI-1
[47] = test system: RPMI-8226
[48] = test system: A549
[49] = test system: HCT-15
[50] = test system: LOX IMVI
[51] = test system: SN12C
[52] = test system: DU-145
[53] = test system: NCI-H522
[54] = test system: NCI-H23
[55] = test system: T47D
[56] = test system: SNB-19
[57] = test system: A498

Measured: GI50

Cc1ccc(O)c(/N=N\c2c(O)cc(S(=O)(=O)O)c3ccccc23)c1
43.6 µM: [49]
inactive: [1] 26.5 µM | [2] 32.2 µM | [3] 33.7 µM | [4] 40.3 µM | [5] > 100 µM | [6] 41.1 µM | [7] 57.4 µM | [8] 45.2 µM | [9] 24.3 µM | [10] 35.6 µM | [11] 21.8 µM | [12] 17.3 µM | [13] > 100 µM | [14] 67.6 µM | [15] 61.5 µM | [16] 25.7 µM | [17] 25.5 µM | [18] 23.1 µM | [19] 51.4 µM | [20] 25.4 µM | [21] 26.2 µM | [22] > 100 µM | [23] > 100 µM | [24] 66.1 µM | [25] 22.5 µM | [26] 20.7 µM | [27] 61.8 µM | [28] 94.6 µM | [29] 40.5 µM | [30] 16.4 µM | [31] 17.8 µM | [32] 96.4 µM | [33] 25.2 µM | [34] 81.7 µM | [35] 14.1 µM | [36] > 100 µM | [37] 62.5 µM | [38] 45.6 µM | [39] > 100 µM | [40] 45.3 µM | [41] 24.6 µM | [42] 56.9 µM | [43] 29.7 µM | [44] 34.6 µM | [45] 57.5 µM | [46] 63.4 µM | [47] 37.9 µM | [48] 54.6 µM

COc1ccc(-c2cc(O)c3c(C)cc(C)nc3n2)cc1
24.4 µM: [49]
inactive: [1] 16 µM | [2] 23 µM | [4] 23.3 µM | [50] 27.4 µM | [5] 25.1 µM | [6] 15.3 µM | [7] 26.8 µM | [8] 38.9 µM | [51] 44.3 µM | [52] 48.4 µM | [9] 33.4 µM | [11] 34.8 µM | [12] 38 µM | [13] 43.2 µM | [14] 20.8 µM | [15] 20.3 µM | [16] 18.4 µM | [53] 38.1 µM | [18] 16.9 µM | [54] 28.6 µM | [19] > 100 µM | [55] 28.2 µM | [20] 17.7 µM | [21] 33.5 µM | [22] 49.7 µM | [23] 26.9 µM | [24] 26.4 µM | [56] 49.4 µM | [28] 25.9 µM | [29] 44.1 µM | [30] 15.8 µM | [32] 45.2 µM | [33] 29 µM | [34] 26.4 µM | [35] 35 µM | [36] 27.7 µM | [37] > 100 µM | [38] > 100 µM | [39] 53 µM | [57] 30.5 µM | [40] 47.9 µM | [41] 35.3 µM | [43] 43.1 µM | [46] 22.9 µM | [47] 18 µM | [48] 55.3 µM
